Entries after “also recorded” stand apart in the source; their conditions may differ.
Tests used:
PA2652-LBD = target: T1, PA2652-LBD (Pseudomonas aeruginosa, UniProt Q9I0I6); test: ITC titration with L-malic acid in absence and presence of antagonists (competition); assay type: binding, Pseudomonas aeruginosa PAO1
T1 construct: The DNA fragment encoding the LBD of PA2652 (Lys^34–Thr^205) was amplified; His-tag (vector-encoded by pET28b(+) via NdeI site); made in house; host or cells: Escherichia coli BL21 (DE3)
Text: In order to understand the mechanistic role of these antagonistics in the chemotaxis behaviour of P. aeruginosa, we first carried out ITC binding studies. In these assays, we measured the affinity of L-malic acid for PA2652-LBD in the presence of different concentrations of citraconic and D,L-methylsuccinic acids. […] Considering the close structural similarity of antagonists and L-malic acid (Fig. 3) it is likely that these compounds compete for binding at the same site at PA2652.
Figure 7 Attractants and antagonists compete for binding at PA2652-LBD in vitro. Isothermal titration calorimetry analysis of the binding of L-malic acid to PA2652-LBD in the absence and presence of 2 or 20 mM of the antagonists, citraconic and D,L-methylsuccinic acids. Upper panel: Titration raw data for the injection of 9.6 μl aliquots of 1 mM of L-malic acid into 20 μM of protein in the absence and presence of antagonists (present both in the injector syringe and sample cell). Lower panel: Integrated, dilution heat corrected and concentration normalized peak areas fitted with the “One binding site” model of ORIGIN. The apparent binding constants are listed in Supplementary Table S2.
Experiments were conducted on a VP-microcalorimeter (Microcal, Amherst, MA, USA) at 20 °C. PA2652-LBD was dialyzed overnight against TNG buffer, adjusted to a concentration of 20–35 μM and placed into the sample cell of the instrument. The protein was titrated by the injection of 9.6–14.4 μl aliquots of 1–20 mM ligand solutions that were prepared in TNG buffer (20 mM Tris/HCl, 150 mM NaCl, 10% (v/v) glycerol, pH 6.8) immediately before use. The mean enthalpies measured from the injection of ligands into buffer were subtracted from raw titration data prior to data analysis with the MicroCal version of ORIGIN. Data were fitted with the “One binding site model”.

[1] = tested on: Pseudomonas aeruginosa PAO1 (wt and PA2652 mutant); test: Growth experiments with ligands as sole carbon source; assay type: cell-based; conditions: M9 minimal medium, 10 mM carbon source
Text: To evaluate the physiological relevance of the ligands identified, we first addressed the question of whether they could support bacterial growth as sole carbon source. To this end, we conducted growth experiments of the wild type (wt) strain and a mutant defective in PA2652 in minimal medium supplemented with the different ligands as sole carbon sources.
Bacterial strains used in this study are listed in Supplementary Table S3. Pseudomonas aeruginosa PAO1 and its derivative strains were routinely grown at 37 °C in Luria Broth (LB; 5 g yeast extract l^−1, 10 g Bacto tryptone l^−1 and 5 g NaCl l^−1) or M9 medium supplemented with 1 mM MgSO4, 6 mg l^−1 Fe-citrate, trace elements[81] and 15 mM glucose as carbon source. For growth experiments to assess the capacity of PA2652-LBD ligands to support growth a sole C-source, PAO1 cells were pre-cultured overnight in M9 medium supplemented with 10 mM glucose and washed twice with M9 medium salts, prior to the inoculation of M9 medium containing10 mM of the different carbon sources. When necessary, the pH of the medium was adjusted to 7.0 prior to inoculation. Bacterial growth over the time was monitored using Bioscreen Microbiological Growth Analyser (Oy Growth Curves Ab Ltd, Helsinki, Finland). Escherichia coli strains were grown at 37 °C in LB. Escherichia coli DH5α was used as a host for gene cloning. When appropriate, antibiotics were used at the following final concentrations (in µg ml^−1): kanamycin, 25 (E. coli strains) and 100 (Pseudomonas strains); tetracycline, 40.

[2] = tested on: Pseudomonas aeruginosa PAO1 cheA1 mutant; test: Capillary chemotaxis assay, cheA1 mutant; assay type: cell-based; conditions: 10 mM L-malic acid
Method: (§1) A recent bioinformatic study has predicted that PA2652 signals through the che pathway. To verify this prediction we conducted chemotaxis assays to L-malic acid using the wt strain as well as mutants in cheA1 and cheA2, encoding respectively the histidine kinases of the che and che2 pathways.
(§2) Overnight cultures of P. aeruginosa strains were diluted to an OD660 of 0.05 in MS medium (30 mM Na2HPO4, 20 mM KH2PO4, 25 mM NH4NO3, 1 mM MgSO4) supplemented with 6 mg l^−1 Fe-citrate, trace elements[81] and 15 mM glucose as carbon source, and grown at 37 °C with orbital shaking (200 rpm). At an OD660 of 0.4 ([…]) cultures were centrifuged at 1,700 × g for 5 min and the resulting pellet was washed twice with chemotaxis buffer (50 mM potassium phosphate, […], 0.05% (v/v) glycerol, pH 7.0). Subsequently, the cells were resuspended in the same buffer, adjusted to an OD660 of 0.1 and 230 µl aliquots of the bacterial cultures were placed into 96-well plates. For the quantitative assays, one-microliter capillary tubes (Microcaps, Drummond Scientific, Ref. P1424) were heat-sealed at one end and filled with either the chemotaxis buffer (negative control) or chemotaxis buffer containing the chemoeffectors to test. The capillaries were immersed into the bacterial suspensions at its open end. […] The number of colony forming units was determined after overnight incubation. […]

[3] = tested on: Pseudomonas aeruginosa PAO1 cheA2 mutant; test: Capillary chemotaxis assay, cheA2 mutant; assay type: cell-based; conditions: 10 mM L-malic acid
Method: as §1, §2

[4] = L-malic acid titration in presence of 2 mM D,L-methylsuccinic acid
[5] = L-malic acid titration in presence of 2 mM citraconic acid
[6] = L-malic acid titration in presence of 20 mM D,L-methylsuccinic acid
[7] = L-malic acid titration in presence of 20 mM citraconic acid
[8] = L-malic acid titration, no antagonist

T1 sequence (Q9I0I6 34-205): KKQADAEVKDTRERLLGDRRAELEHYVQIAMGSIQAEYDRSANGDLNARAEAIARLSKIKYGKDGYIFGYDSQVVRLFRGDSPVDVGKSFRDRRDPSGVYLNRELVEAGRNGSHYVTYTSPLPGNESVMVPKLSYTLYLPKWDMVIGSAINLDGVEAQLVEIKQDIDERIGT

## O=C(O)C[C@H](O)C(=O)O [L-malic acid]
PA2652-LBD
  Kd: 23 ± 1 µM
PA2652-LBD; [4]
  n (apparent): 0.6 ± 0.1
  ∆H (apparent): -6.7 ± 1 kcal/mol
PA2652-LBD; [5]
  n (apparent): 0.9 ± 0.2
  ∆H (apparent): -5.1 ± 1 kcal/mol
PA2652-LBD; [6]
  n (apparent): 1.1 ± 0.9
  ∆H (apparent): -2.6 ± 2 kcal/mol
PA2652-LBD; [7]
  n (apparent): 1.1 ± 1
  ∆H (apparent): -3.3 ± 5 kcal/mol
PA2652-LBD; [8]
  n (apparent): 1 ± 0.1
  ∆H (apparent): -4.1 ± 0.6 kcal/mol
PA2652-LBD; antagonists increased to 20 mM
  Change of apparent affinity of L-malic acid: further reduction in the apparent affinity
PA2652-LBD; in the presence of 2 mM antagonists (citraconic or D,L-methylsuccinic acid)
  Change of apparent affinity of L-malic acid: decreased approximately by a factor of two
[1]
  Ability to support bacterial growth as sole carbon source: able to efficiently sustain growth
[2]
  Chemotaxis in cheA1 mutant: abolished chemotaxis; also recorded: no response was observed
[3]
  Chemotaxis in cheA2 mutant: almost identical to that of wt strain; also recorded: indistinguishable from that of the wt

Source: paper PMC5795001, “The activity of the C4-dicarboxylic acid chemoreceptor of Pseudomonas aeruginosa is controlled by chemoattractants and antagonists” (Scientific Reports, 2018)
